Earlier results as cited in patent US20170112823A1, “COMPOSITIONS AND METHODS TO TREAT […] RELATED CONDITIONS” (priority 2015, published 2017).

Conditions: frequency of side effect

Structure (SMILES)	side effects: very commonly, dizziness and drowsiness [%]	side effect: dizziness [%]	side effect: dry mouth [%]	side effect: headache [%]	side effect: nausea [%]
CC(C)C[C@H](CN)CC(=O)O [LYRICA, Pregabalin]	> 10	–	–	–	–
CNCC[C@H](Oc1cccc2ccccc12)c1cccs1 [Cymbalta, Duloxetine]	–	19	23	20	34
